Assay results reported in EP0372582A2, “6-Aminoalkyl carbapenems” (Bristol-Myers Squibb Company, priority 1988, dated 1990).
Read-outs that look alike come from different tables or passages of the source. Each block holds one compound with its values, some of them ahead of it.

Key:
[1] = Chemical stability in aqueous solution (half-life); assay type: physicochemical
Procedure: Chemical stability in aqueous solution at pH 7.4 and pH 2.0 is reported as half-life (t1/2). These values are determined by interpolation from a graph of concentration of test substance remaining in solution after storage under selected conditions for various periods of time.

Staph. serum = test: M.I.C., tube dilution method in Nutrient Broth; assay type: cell-based
Procedure: (§1) The following procedures illustrate the application of the process of this invention to the preparation of a variety of compounds of Formula V. In many instances, data illustrating the biological activity of the substances as antibiotics are presented. […] It is determined by interpolation from a graph of concentration versus number of cells following exposure of the organism to the test compound under growth conditions. Another parameter such as optical density which is proportional to the cell count may be used. In some instances MIC₉₀ values are also given. The latter refers to 90% growth inhibition.

Ps. aeru. A9843 = test: M.I.C., tube dilution method in Nutrient Broth; assay type: cell-based; details: unit assumed
Procedure: as §1

Staph. aur. A9537 = test: M.I.C., tube dilution method in Nutrient Broth; assay type: cell-based; details: unit assumed
Procedure: as §1

Ent. clo. A9656 = test: M.I.C., tube dilution method in Nutrient Broth; assay type: cell-based; details: unit assumed
Procedure: as §1

Str. faec. A20688 = test: M.I.C., tube dilution method in Nutrient Broth; assay type: cell-based; details: unit assumed
Procedure: as §1

E. coli A15119 = test: M.I.C., tube dilution method in Nutrient Broth; assay type: cell-based; details: unit assumed
Procedure: as §1

K. pneu. A20468 = test: M.I.C., tube dilution method in Nutrient Broth; assay type: cell-based; details: unit assumed
Procedure: as §1

P. morg. A15153 = test: M.I.C., tube dilution method in Nutrient Broth; assay type: cell-based; details: unit assumed
Procedure: as §1

Str. pneu. A9585 = test: M.I.C., tube dilution method in Nutrient Broth; assay type: cell-based; details: unit assumed
Procedure: as §1

Str. pyo. A9604 = test: M.I.C., tube dilution method in Nutrient Broth; assay type: cell-based; details: unit assumed
Procedure: as §1

Ent. clo. A9659 = test: M.I.C., tube dilution method in Nutrient Broth; assay type: cell-based; details: unit assumed
Procedure: as §1

Ser. mars. A20019 = test: M.I.C., tube dilution method in Nutrient Broth; assay type: cell-based; details: unit assumed
Procedure: as §1

Staph aur. Pen+ = test: M.I.C., tube dilution method in Nutrient Broth; assay type: cell-based; details: unit assumed
Procedure: as §1

E. coli A20341 = test: M.I.C., tube dilution method in Nutrient Broth; assay type: cell-based; details: unit assumed
Procedure: as §1

P. mir. A9900 = test: M.I.C., tube dilution method in Nutrient Broth; assay type: cell-based; details: unit assumed
Procedure: as §1

Staph aur. MR = test: M.I.C., tube dilution method in Nutrient Broth; assay type: cell-based; details: unit assumed
Procedure: as §1

K. pneu. A9664 = test: M.I.C., tube dilution method in Nutrient Broth; assay type: cell-based; details: unit assumed
Procedure: as §1

P. vul. A21559 = test: M.I.C., tube dilution method in Nutrient Broth; assay type: cell-based; details: unit assumed
Procedure: as §1

P. rett. A22424 = test: M.I.C., tube dilution method in Nutrient Broth; assay type: cell-based; details: unit assumed
Procedure: as §1

E. coli = test: Protective dose (PD50) in infected animals; assay type: in vivo, mice; parameters: unit not given here
Source text: The PD₅₀ values are protective doses, or the dose of test compound which secures survival of 50% of the animals of a test group, usually mice, during a designated period of time after being infected with an inoculum of infectious organism which will result in death of all inoculated untreated animals during that test period.

[2] = Blood concentration parameters after administration to mice; assay type: in vivo; details: for AUC / Cmax / half-life: mouse, mice; for half-life: blood half-life
Source text: […] "Cmax" is the maximum concentration achieved, "t1/2" is the half-life or time for half of the absorbed material to disappear from the blood stream.

[3] = citric acid buffer, pH 2, 37°C, pH 2.0 citric acid buffer, by hplc, read-out: t1/2, pH 2
[4] = phosphate buffer, pH 7.4, 37°C, pH 7.4 phosphate buffer, by uv, read-out: t1/2, pH 7.4 (converted)
[5] = blood, PO, 50 mg/kg, read-out: Cmax, PO/50
[6] = 37°C, pH 2.0 citric acid buffer, by hplc, read-out: t1/2, pH 2
[7] = 37°C, pH 7.4 phosphate buffer, by uv, read-out: t1/2, pH 7.4 (converted)

- half-life [1, 3]: 2.8 h
- half-life [1, 4]: 4.3 h
Compound: CCSC1=C(C(=O)O)N2C(=O)[C@H]([C@@H](C)N)[C@H]2[C@H]1C [Procedure 7, (5S,6R) 6-(1′R-Aminoethyl)-3-ethylthio-4R-methyl-7-oxo-1-azabicyclo[3.2.0]hept-2-ene-2-carboxylic Acid]

- half-life [1, 4]: 160 h
Compound: CSC1=C(C(=O)O)N2C(=O)[C@H]([C@H](C)O)[C@H]2[C@H]1C [Procedure 4, (5S,6S) Potassium 6-(1′S-hydroxyethyl)-4R-methyl-3-methylthio-7-oxo-1-azabicyclo[3.2.0]hept-2-ene-2-carboxylate]

Compound: C[C@H](N)[C@H]1C(=O)N2C(C(=O)O)=C(SCc3cccnc3)[C@H](C)[C@H]12 [Procedure 58]
- M.I.C. Staph. serum (Staph. serum): 4.000

Compound: CC[C@H]1C(SC)=C(C(=O)O)N2C(=O)[C@H]([C@H](C)N)[C@@H]12 [Procedure 49, (5S,6R) 6-(1′S-Aminoethyl)-4R-ethyl-3-methylthio-7-oxo-1-azabicyclo[3.2.0]hept-2-ene-2-carboxylic Acid]
- M.I.C. Staph. serum (Staph. serum): 63.000

- half-life [1, 3]: 2.93 h
- half-life [1, 4]: 2.8 h
Compound: C[C@@H](N)[C@H]1C(=O)N2C(C(=O)O)=C(SCCC#N)[C@H](C)[C@H]12 [Procedure 26, (5S,6R)-6-(1′R-Aminoethyl)-3-(2-cyanoethylthio)-4R-methyl-7-oxo-1-azabicyclo[3.2.0]hept-2-ene-2-carboxylic Acid]

Compound: CSC1=C(C(=O)[O-])N2C(=O)[C@H]([C@H](C)[N+](C)(C)C)[C@H]2[C@H]1C [Procedure 59, (5S,6R) 6-(1′S-N-Trimethylammonium-ethyl)-4R-methyl-3-methylthio-7-oxo-1-azabicyclo[3.2.0]hept-2-ene-2-carboxylate]
- M.I.C. Staph. serum (Staph. serum): 8.000

Compound: CC[C@H]1C(SCc2cn(C)nn2)=C(C(=O)O)N2C(=O)[C@H]([C@H](C)N)[C@@H]12 [Procedure 52, (5S,6R) 6-(1′S-Aminoethyl)-4R-ethyl-3-[(1-metyl-1,2,3-triazol-4-yl)-methylthio]-7-oxo-1-azabicyclo[3.2.0]hept-2-ene-2-carboxylate]
- M.I.C. Ps. aeru. A9843 (Ps. aeru. A9843): 32 µg/mL
- M.I.C. Staph. aur. A9537 (Staph. aur. A9537): 32 µg/mL
- M.I.C. Ent. clo. A9656 (Ent. clo. A9656): 1 µg/mL
- M.I.C. Str. faec. A20688 (Str. faec. A20688): 125 µg/mL
- M.I.C. E. coli A15119 (E. coli A15119): 0.5 µg/mL
- M.I.C. K. pneu. A20468 (K. pneu. A20468): 2 µg/mL
- M.I.C. P. morg. A15153 (P. morg. A15153): 0.5 µg/mL
- M.I.C. Str. pneu. A9585 (Str. pneu. A9585): 8 µg/mL
- M.I.C. Str. pyo. A9604 (Str. pyo. A9604): 16 µg/mL
- M.I.C. Ent. clo. A9659 (Ent. clo. A9659): 2 µg/mL
- M.I.C. Ser. mars. A20019 (Ser. mars. A20019): 1 µg/mL
- M.I.C. Staph aur. Pen+ (Staph aur. Pen+): 125 µg/mL
- M.I.C. E. coli A20341 (E. coli A20341): 0.5 µg/mL
- M.I.C. P. mir. A9900 (P. mir. A9900): 0.25 µg/mL
- M.I.C. Staph aur. MR (Staph aur. MR): 125 µg/mL
- M.I.C. K. pneu. A9664 (K. pneu. A9664): 1 µg/mL
- M.I.C. P. vul. A21559 (P. vul. A21559): 0.25 µg/mL
- M.I.C. P. rett. A22424 (P. rett. A22424): 4 µg/mL
- M.I.C. Staph. serum (Staph. serum; unit assumed): 63 µg/mL

- AUC ([2]; blood, PO, 50 mg/kg): 5000 ng·h/mL
- Cmax [2, 5]: 9000 ng/mL
- half-life ([2]; PO, 50 mg/kg): 0.3 h
- half-life [1, 3]: 3.53 h
- half-life ([1]; phosphate buffer, pH 7.4, 22°C, pH 7.4 phosphate buffer, read-out: half-life (converted)): 39 h
- half-life [1, 4]: 6.8 h
Compound: CSC1=C(C(=O)O)N2C(=O)[C@H]([C@@H](C)N)[C@H]2[C@H]1C [Procedure 9, (5S,6R) 6-(1′R-Aminoethyl)-4R-methyl-3-methylthio-7-oxo-1-azabicyclo[3.2.0]hept-2-ene-2-carboxylic Acid]
- PD50, E. coli (E. coli; IM): 25.00
- PD50, E. coli (E. coli; PO): 12.50

Compound: CSC1=C(C(=O)O)N2C(=O)[C@H]([C@H](C)N)[C@H]2[C@H]1C [Procedure 57, (5S,6R) 6-(1S-Aminoethyl)-4R-methyl-3-methylthio-7-oxo-1-1-azabicyclo[3.2.0]hept-2-ene-2-carboxylate]
- M.I.C. Staph. serum (Staph. serum): 16.000

Compound: CSC1=C(C(=O)O)N2C(=O)[C@H]([C@H](C)NC(=O)CNC(=O)[C@@H](N)CC(C)C)[C@H]2[C@H]1C [Procedure 61, (5S,6R) 6-(1′S-(L-Leucylglycyl)aminoethyl)-4R-methyl-3-methylthio-7-oxo-1-azabicyclo[3.2.0]hept-2-ene-2-carboxylic Acid]
- M.I.C. Staph. serum (Staph. serum): 63.000

Compound: C[C@@H](N)C1C(=O)N2C(C(=O)O)=C(SCc3ccccc3)[C@H](C)[C@H]12 (stereo in doubt) [Procedure 12, (5S,6S) 6-(1′R-Aminoethyl)-3-benzylthio-4R-methyl-7-oxo-1-azabicyclo[3.2.0]hept-2-ene-2-carboxylic Acid]
- AUC ([2]; in vivo, PO, 50 mg/kg): 11000 ng·h/mL
- half-life ([2]; in vivo, PO, 50 mg/kg): 0.217 h
- Cmax ([2]; in vivo, PO, 50 mg/kg, read-out: Cmax, PO/50): 33000 ng/mL
- half-life [1, 6]: 2.4 h
- half-life [1, 7]: 4.1 h

- Cmax [2, 5]: 2000 ng/mL
- half-life [1, 3]: < 0.0833 h
- half-life [1, 4]: 46 h
Compound: CSC1=C(C(=O)O)N2C(=O)[C@H]([C@@H](C)NC(=O)[C@H](CC(C)C)NC(=O)[C@H](C)N)[C@H]2[C@H]1C [Procedure 39, (5S,6R)-6-{1′R-(L-Alanyl-L-leucyl)aminoethyl}-4R-methyl-3-methylthio-7-oxo-1-azabicyclo[3.2.0]hept-2-ene-2-carboxylic Acid]
- PD50, E. coli (E. coli; IM): 25.00
- PD50, E. coli (E. coli; PO): 25.00

Compound: CSC1=C(C(=O)O)N2C(=O)[C@H]([C@@H](C)NC(=O)CNC(=O)[C@@H](N)CC(C)C)[C@H]2[C@H]1C [Procedure 37]
- M.I.C. Staph. serum (Staph. serum): 16.000

- U.R. ([2]; listed after the PO/50 lines, abbreviation not defined): 5
- half-life ([2]; 20 mg/kg, IM/20): 0.2 h
- AUC ([2]; blood, 20 mg/kg, IM/20): 7000 ng·h/mL
- Cmax ([2]; blood, 20 mg/kg, IM/20, read-out: Cmax, IM/20): 18000 ng/mL
- AUC ([2]; blood, PO, 50 mg/kg): 21000 ng·h/mL
- Cmax [2, 5]: 25000 ng/mL
- half-life ([2]; PO, 50 mg/kg): 0.383 h
- half-life [1, 3]: 2.4 h
- half-life [1, 4]: 3 h
Compound: C[C@@H](N)[C@H]1C(=O)N2C(C(=O)O)=C(SCc3cccnc3)[C@H](C)[C@H]12 [Procedure 21, (5S,6R)-6-(1′R-Aminoethyl)-4R-methyl-3-[(pyridin-3-yl)methyl-thio]-7-oxo-1-azabicyclo[3,2,0]hept-2-ene-2-carboxylic Acid]
- PD50, E. coli (E. coli; PO): 8.10

Compound: C[C@H](N)[C@H]1C(=O)N2C(C(=O)O)=C(SCCC#N)[C@H](C)[C@H]12 [Procedure 35, (5S,6R) 6-(1′S-Aminoethyl)-3-(2-cyanoethylthio)-4R-methyl-7-oxo-1-azabicyclo[3.2.0]hept-2-ene-2-carboxylic Acid]
- half-life [1, 6]: 0.583 h
- half-life [1, 7]: 1.5 h

Compound: CSC1=C(C(=O)[O-])N2C(=O)[C@H]([C@@H](C)[N+](C)(C)C)[C@H]2[C@H]1C [Procedure 36]
- M.I.C. Staph. serum (Staph. serum): 63.000

- Cmax [2, 5]: 2000 ng/mL
- half-life [1, 3]: < 0.0833 h
- half-life [1, 4]: 29 h
Compound: CSC1=C(C(=O)O)N2C(=O)[C@H]([C@@H](C)NC(=O)CNC(=O)[C@H](C)N)[C@H]2[C@H]1C [Procedure 38, (5S,6R) 6-(1′R-(L-alanylglycyl)aminoethyl)-4R-methyl-3-methylthio-7-oxo-1-azabicyclo[3.2.0]hept-2-ene--2-carboxylic Acid]
- PD50, E. coli (E. coli; IM): 12.50
- PD50, E. coli (E. coli; PO): 25.00

Compound: CCSC1=C(C(=O)O)N2C(=O)[C@H]([C@H](C)N)[C@H]2[C@H]1C [Procedure 60, (5S,6R) 6-(1′S-aminoethyl)-3-ethylthio-4R-methyl-7-oxo-1-azabicyclo[3.2.0]hept-2-ene-2-carboxylic acid]
- M.I.C. Staph. serum (Staph. serum): 8.000

Compound: C[C@@H](N)[C@H]1C(=O)N2C(C(=O)O)=C(SCCF)[C@H](C)[C@H]12 [Procedure 23]
- M.I.C. Staph. serum (Staph. serum): 16.000
